The subject of this data set is CCRIS mutagenicity, Ames/micronucleus/aberration tests. Nature of the data set: CCRIS mutagenicity studies.
Setting [1] is: Test System: AMES SALMONELLA TYPHIMURIUM, Strain/Indicator: TA98, Metabolic Activation: NONE, Method: PREINCUBATION
[2] abbreviates: Test System: AMES SALMONELLA TYPHIMURIUM, Strain/Indicator: TA100, Metabolic Activation: NONE, Method: PREINCUBATION
Where [3] appears, read: Test System: AMES SALMONELLA TYPHIMURIUM, Strain/Indicator: TA100, Metabolic Activation: NONE, Method: STANDARD PLATE.
Setting [4] is: Test System: AMES SALMONELLA TYPHIMURIUM, Strain/Indicator: TA98, Metabolic Activation: NONE, Method: STANDARD PLATE.

Each structure is given as a SMILES string. Calls of active or inactive are those of the source. No rule for the calls is given here.

In the case of `CCC(C(C)O)[N+](=O)[O-]` (stereo unspecified), the mutagenic call was “inactive; negative” under setting [1]; “inactive; negative” (Test System: AMES SALMONELLA TYPHIMURIUM, Strain/Indicator: TA98, Metabolic Activation: RAT, LIVER, S-9, AROCLOR, Method: PREINCUBATION); “inactive; negative” under setting [2]; “inactive; negative” (Test System: AMES SALMONELLA TYPHIMURIUM, Strain/Indicator: TA100, Metabolic Activation: RAT, LIVER, S-9, AROCLOR, Method: PREINCUBATION); “inactive; negative” (Test System: AMES SALMONELLA TYPHIMURIUM, Strain/Indicator: TA102, Metabolic Activation: NONE, Method: PREINCUBATION); “inactive; negative” (Test System: AMES SALMONELLA TYPHIMURIUM, Strain/Indicator: TA102, Metabolic Activation: RAT, LIVER, S-9, AROCLOR, Method: PREINCUBATION).
Take `NN(c1ccccc1)c1ccccc1`: the mutagenic call (Test System: AMES SALMONELLA TYPHIMURIUM, Strain/Indicator: TA97, Metabolic Activation: NONE, Method: STANDARD PLATE) was “inactive; negative”; the mutagenic call (Test System: AMES SALMONELLA TYPHIMURIUM, Strain/Indicator: TA97, Metabolic Activation: RAT, LIVER, S-9, AROCLOR 1254, Method: STANDARD PLATE) was “inactive; negative”; the mutagenic call under setting [3] was “inactive; negative”; the mutagenic call (Test System: AMES SALMONELLA TYPHIMURIUM, Strain/Indicator: TA100, Metabolic Activation: RAT, LIVER, S-9, AROCLOR 1254, Method: STANDARD PLATE) was “inactive; negative”.
Take `ClC[C@@H](Br)CBr`: the mutagenic call (Test System: AMES SALMONELLA TYPHIMURIUM, Strain/Indicator: TA100, Metabolic Activation: RAT, LIVER, MICROSOMES, Method: PREINCUBATION) was “active; positive”.
For the compound `O=Cc1ccccc1Cl`, the mutagenic call is “inactive; negative” (Test System: AMES SALMONELLA TYPHIMURIUM, Strain/Indicator: TA97, Metabolic Activation: HAMSTER, LIVER, S-9, AROCLOR 1254 (10%), Method: PREINCUBATION); “inactive; negative” (Test System: AMES SALMONELLA TYPHIMURIUM, Strain/Indicator: TA97, Metabolic Activation: HAMSTER, LIVER, S-9, AROCLOR 1254 (30%), Method: PREINCUBATION); “inactive; negative” (Test System: AMES SALMONELLA TYPHIMURIUM, Strain/Indicator: TA97, Metabolic Activation: NONE, Method: PREINCUBATION); “inactive; negative” (Test System: AMES SALMONELLA TYPHIMURIUM, Strain/Indicator: TA97, Metabolic Activation: RAT, LIVER, S-9, AROCLOR 1254 (10%), Method: PREINCUBATION); “inactive; negative” (Test System: AMES SALMONELLA TYPHIMURIUM, Strain/Indicator: TA97, Metabolic Activation: RAT, LIVER, S-9, AROCLOR 1254 (30%), Method: PREINCUBATION); “inactive; negative” (Test System: AMES SALMONELLA TYPHIMURIUM, Strain/Indicator: TA98, Metabolic Activation: HAMSTER, LIVER, S-9, AROCLOR 1254 (10%), Method: PREINCUBATION). Besides, the mutagenic call (Test System: AMES SALMONELLA TYPHIMURIUM, Strain/Indicator: TA98, Metabolic Activation: HAMSTER, LIVER, S-9, AROCLOR 1254 (30%), Method: PREINCUBATION) was “inactive; negative”; the mutagenic call under setting [1] is “inactive; negative”; the mutagenic call (Test System: AMES SALMONELLA TYPHIMURIUM, Strain/Indicator: TA98, Metabolic Activation: RAT LIVER S-9, PCB, Method: PREINCUBATION) was “inactive; negative”; the mutagenic call (Test System: AMES SALMONELLA TYPHIMURIUM, Strain/Indicator: TA98, Metabolic Activation: RAT, LIVER, S-9, AROCLOR 1254 (10%), Method: PREINCUBATION) is “inactive; negative”; the mutagenic call (Test System: AMES SALMONELLA TYPHIMURIUM, Strain/Indicator: TA98, Metabolic Activation: RAT, LIVER, S-9, AROCLOR 1254 (30%), Method: PREINCUBATION) is “inactive; negative”; the mutagenic call (Test System: AMES SALMONELLA TYPHIMURIUM, Strain/Indicator: TA100, Metabolic Activation: HAMSTER, LIVER, S-9, AROCLOR 1254 (10%), Method: PREINCUBATION) was “inactive; negative”. For the same compound, the mutagenic call is, setting by setting: (Test System: AMES SALMONELLA TYPHIMURIUM, Strain/Indicator: TA100, Metabolic Activation: HAMSTER, LIVER, S-9, AROCLOR 1254 (30%), Method: PREINCUBATION) “inactive; negative”; under setting [2], “inactive; negative”; (Test System: AMES SALMONELLA TYPHIMURIUM, Strain/Indicator: TA100, Metabolic Activation: RAT LIVER S-9, PCB, Method: PREINCUBATION) “inactive; negative”; (Test System: AMES SALMONELLA TYPHIMURIUM, Strain/Indicator: TA100, Metabolic Activation: RAT, LIVER, S-9, AROCLOR 1254 (10%), Method: PREINCUBATION) “inactive; negative”; (Test System: AMES SALMONELLA TYPHIMURIUM, Strain/Indicator: TA100, Metabolic Activation: RAT, LIVER, S-9, AROCLOR 1254 (30%), Method: PREINCUBATION) “inactive; negative”; (Test System: AMES SALMONELLA TYPHIMURIUM, Strain/Indicator: TA104, Metabolic Activation: NONE, Method: PREINCUBATION) “inactive; negative”. The mutagenic call (Test System: AMES SALMONELLA TYPHIMURIUM, Strain/Indicator: TA104, Metabolic Activation: RAT LIVER S-9, PCB, Method: PREINCUBATION) is “inactive; negative”; the mutagenic call (Test System: AMES SALMONELLA TYPHIMURIUM, Strain/Indicator: TA1535, Metabolic Activation: HAMSTER, LIVER, S-9, AROCLOR 1254 (10%), Method: PREINCUBATION) is “inactive; negative”; the mutagenic call (Test System: AMES SALMONELLA TYPHIMURIUM, Strain/Indicator: TA1535, Metabolic Activation: HAMSTER, LIVER, S-9, AROCLOR 1254 (30%), Method: PREINCUBATION) is “inactive; negative”; the mutagenic call (Test System: AMES SALMONELLA TYPHIMURIUM, Strain/Indicator: TA1535, Metabolic Activation: NONE, Method: PREINCUBATION) is “inactive; negative”; the mutagenic call (Test System: AMES SALMONELLA TYPHIMURIUM, Strain/Indicator: TA1535, Metabolic Activation: RAT, LIVER, S-9, AROCLOR 1254 (10%), Method: PREINCUBATION) was “inactive; negative”; the mutagenic call (Test System: AMES SALMONELLA TYPHIMURIUM, Strain/Indicator: TA1535, Metabolic Activation: RAT, LIVER, S-9, AROCLOR 1254 (30%), Method: PREINCUBATION) was “inactive; negative”. Further, the mutagenic call was “inactive; negative” (Test System: AMES SALMONELLA TYPHIMURIUM, Strain/Indicator: TA1537, Metabolic Activation: HAMSTER, LIVER, S-9, AROCLOR 1254 (30%), Method: PREINCUBATION); “inactive; negative” (Test System: AMES SALMONELLA TYPHIMURIUM, Strain/Indicator: TA1537, Metabolic Activation: NONE, Method: PREINCUBATION); “inactive; negative” (Test System: AMES SALMONELLA TYPHIMURIUM, Strain/Indicator: TA1537, Metabolic Activation: RAT, LIVER, S-9, AROCLOR 1254 (30%), Method: PREINCUBATION); “inactive; negative” (Test System: E.COLI, Strain/Indicator: WP2 UVRA, Metabolic Activation: RAT LIVER S-9, PCB, Method: PREINCUBATION).
On to `Nc1ccc(CO)c([N+](=O)[O-])c1`, for which the mutagenic call is “active; positive” under setting [1]; “active; positive” (Test System: AMES SALMONELLA TYPHIMURIUM, Strain/Indicator: TA98, Metabolic Activation: RAT, LIVER, S-9, PHENOBARBITAL AND 5,6-BENZOFLAVONE, Method: PREINCUBATION); “active; positive” under setting [2]; “active; positive” (Test System: AMES SALMONELLA TYPHIMURIUM, Strain/Indicator: TA100, Metabolic Activation: RAT, LIVER, S-9, PHENOBARBITAL AND 5,6-BENZOFLAVONE, Method: PREINCUBATION).
For `Nc1ncnc2c1ncn2[C@@H]1O[C@H](CO)C[C@H]1O`, the mutagenic call under setting [4] is “active; positive”; the mutagenic call (Test System: AMES SALMONELLA TYPHIMURIUM, Strain/Indicator: TA98, Metabolic Activation: RAT, LIVER, S-9, POLYCHLORINATED BIPHENYLS, Method: STANDARD PLATE) was “active; positive”; the mutagenic call under setting [3] is “active; positive”; the mutagenic call (Test System: AMES SALMONELLA TYPHIMURIUM, Strain/Indicator: TA100, Metabolic Activation: RAT, LIVER, S-9, POLYCHLORINATED BIPHENYLS, Method: STANDARD PLATE) is “active; positive”.
As to `Cn1c2ccccc2c2cc(N)ccc21`, the mutagenic call reads like this: under setting [4], “active; positive”; (Test System: AMES SALMONELLA TYPHIMURIUM, Strain/Indicator: TA98, Metabolic Activation: RAT LIVER S-9, AROCLOR 1254, Method: STANDARD PLATE) “active; positive”; under setting [3], “active; positive”; (Test System: AMES SALMONELLA TYPHIMURIUM, Strain/Indicator: TA100, Metabolic Activation: RAT LIVER S-9, AROCLOR 1254, Method: STANDARD PLATE) “active; positive”.

Values taken from PubChem BioAssay AID1259407 (Chemical Carcinogenesis Research Information System (CCRIS), 2018).
